Data on four compounds can be found in article PMC12079500, “An Intracellular Peptide Library Screening Platform Identifies Irreversible Covalent Transcription Factor Inhibitors” (Advanced Science, 2025).

The IC50 is the concentration that inhibits the measured activity by half.

Where “and” joins values, the source holds several entries; their conditions need not be identical. Equal entries are not always repeated. Where two headings read alike, the source gives them in different places. Where a SMILES comes first, the peptide text is derived from it. Bridges are numbered along the chain shown (N, C = ends). The star is where a group is joined. 5FAM = O=C1OC2(c3ccc(O)cc3Oc3cc(O)ccc32)c2ccc(C(=O)*)cc21

One series concerns SK-MEL-28 cells. The series can be described thus: Cell imaging of FAM-peptide uptake. It is filed as cell-based, human. Conditions: SK-MEL-28, 10 and 30 µM, 6 h, 37 °C, fixed, DAPI counterstain, fluorescence microscopy. How it is done: Cell imaging: Cells were seeded at 40,000 cells per well in a […] and incubated for 24 hours before treatment with vehicle (1% DMSO in water) or peptide for 6 hours. The media was removed and the cells were washed 3x with PBS. 1 mL of paraformaldehyde (80 mg/mL in PBS) was added and incubated at room temperature for 10 minutes. The paraformaldehyde was removed and fixed cells were washed with 3x PBS. 500 µL of DAPI (1 µg/mL) was then added and incubated at room temperature for 5 minutes following by a 3x PBS wash. Cells were imaged using an Evos FL digital inverted fluorescence microscope using brightfield and both GFP (for the FAM label) and DAPI fluorescence filters.

For a further series, the target named is T1, cJun/TRE DNA (Homo sapiens, UniProt P05412).
T1 construct: LC-MS analysis of the cJun bZIP domain; made in house
T1 sequence (P05412 252-315 limits assumed): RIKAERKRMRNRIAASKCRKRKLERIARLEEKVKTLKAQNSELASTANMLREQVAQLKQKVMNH
Put plainly: CD cJun/TRE DNA antagonism assay (TRE DNA signal at 281 nm). It counts as biochemical. Conditions: for cJun-TRE DNA IC50, fold improved (oxidised vs reduced): ratio of IC50 reduced / oxidised; for IC50: pH 7.4, 30 min equilibration, triplicate data, Hill fit, error one SD. The text has this:
CD antagonism experiments were next carried out, as previously described,^[ [13], [18] ^] whereby the structure of a TRE DNA duplex was monitored by following a peak at 281 nm, which shifts upon binding to cJun. The introduction of antagonist to the sample causes the peak to shift back to its unbound signal in a dose‐dependent manner as the cJun is sequestered, leaving unbound DNA in its original structure (Figure S9, Supporting Information). As there is no protein absorbance in this region of the CD spectrum, this measures DNA structure only and produces a simple readout of the proportion of free/cJun‐bound DNA at different antagonist concentrations. By fitting these plots to a Hill equation (OriginPro), IC50 values for HW1, HW29, and HW31 were determined in both reducing and oxidizing conditions (Table S1, Supporting Information; Figure 3C).
(§1) Circular dichroism (CD): An Applied Photophysics Chirascan was used for CD measurements, with a 200 µL sample in a 1 mm path length CD cell. Protein/DNA samples were suspended in 20 mM potassium phosphate,150 mM potassium fluoride at pH 7.4 with or without 5 mM TCEP. cJun was added to TRE DNA (5’-[…], Merck) before addition of antagonist peptide and these samples were equilibrated for 30 minutes before measurement.^[13] For full spectra, three scans between 190 and 260 nm (265-320 nm for DNA binding experiments) were collected with a bandwidth of 1 nm and data sampled at a rate of 0.5 s^-1. These scans were averaged and converted to molar residue ellipticities (MRE). Thermal denaturation experiments were performed by measuring the ellipticity at 222 nm over a 1 to 95°C gradient at 1°C increments. Post-melt scans at 20°C confirmed the transitions were reversible as they overlaid within 5% of the pre-melt scan. The resulting thermal denaturation curves were converted to MRE and fitted to a two-state model, derived via modification of the Gibbs–Helmholtz equation to determine the melting temperature (Tm) ^[26].

For series [1], the target named is T2, cJun (Homo sapiens, UniProt P05412). Put plainly: CD thermal denaturation of antagonist-cJun heterodimer. It is filed as binding. More on the design: LC-MS analysis of the cJun bZIP domain; made in house. The note with it: for Antagonist-cJun heterodimer Tm, reduced / Antagonist-cJun heterodimer Tm, oxidised: CD at 222 nm, 1-95 °C, 20 mM potassium phosphate, 150 mM KF; for Antagonist-cJun heterodimer Tm, reduced: pH 7.4, with 5 mM TCEP (reducing); for Antagonist-cJun heterodimer Tm, oxidised: pH 7.4, without TCEP (oxidising), HW31 50 µM + cJun 50 µM; for Antagonist-cJun heterodimer Tm, Δox-red: difference of Tm in oxidising and reducing buffer. How it is done: as §1
T2 sequence (P05412 252-315 limits assumed): as above

For series [2], the target named is cJun. The note with it: cited from earlier work. The text has this: We previously developed cJun peptide antagonists using a Transcription Block Survival (TBS) assay (Figure 1B).^[ [13] ^] This intracellular peptide library screening platform moves beyond conventional peptide screening systems by selecting peptides based on their ability to not only bind to the target but to meet the more demanding task of functionally antagonizing it by i) binding and, more importantly, ii) blocking its ability to form protein‐DNA interactions.

In series [3] the target is T2, cJun. Put plainly: CD spectra (helicity) of HW31-cJun mixture. It is filed as binding. More on the design: LC-MS analysis of the cJun bZIP domain; made in house. Conditions: oxidised vs reduced buffer. How it is done:
as §1

Series [4] deals with T2, cJun. Put plainly: ESI-MS of HW31 + cJun mixture. It counts as binding. More on the design: LC-MS analysis of the cJun bZIP domain; made in house. The note with it: HW31 50 µM + cJun 50 µM, oxidising conditions; reduced back by TCEP. How it is done:
A mixture of HW31 (50 µM) and cJun (50 µM, Figure S4, Supporting Information) was first shown to form a disulphide‐bridged complex by ESI‐MS, which could be reduced back to the separate species by the addition of TCEP (Figure S5, Supporting Information). Further, an Alphafold 3 prediction of HW31 (prediction without lactam bridge) bound to cJun indicates the complex forms the predicted coiled coil interaction with the formation of a disulphide between cJun C269 and HW31 C2 (Figure 3A; Figure S6, Supporting Information).^[ [17] ^] The interaction was next characterized using circular dichroism (CD) experiments in both oxidizing and reducing conditions. The mixing of HW31 and cJun in both conditions provided a clear increase in helicity, indicative of a binding interaction (Figure S7, Supporting Information). The measured HW31‐cJun heterodimer complex was ≈10% more helical in the oxidized buffer relative to the reduced. […] Analytical size exclusion chromatography further validated HW31/cJun binding and confirmed the formation of a 1:1 stoichiometric complex (Figure S8, Supporting Information).

[5] abbreviates: oxidising buffer (no TCEP), read-out: cJun-TRE DNA IC50, oxidised.
[6] abbreviates: reducing buffer (5 mM TCEP), read-out: cJun-TRE DNA IC50, reduced.

Regarding `CC(C)[C@H](NC(=O)[C@H](CCCCN)NC(=O)[C@H](CCCNC(=N)N)NC(=O)[C@H](CCCCN)NC(=O)[C@H](CCCCN)NC(=O)[C@H](CCCCN)NC(=O)[C@@H]1CCCN1C(=O)c1ccc2c(c1)C(=O)OC21c2ccc(O)cc2Oc2cc(O)ccc21)C(=O)N[C@@H](Cc1ccc(O)cc1)C(=O)NCC(=O)N[C@@H](CCCNC(=N)N)C(=O)N[C@@H](CCCCN)C(=O)N[C@@H](CCCCN)C(=O)N[C@@H](CCCNC(=N)N)C(=O)N[C@@H](CCCNC(=N)N)C(=O)N[C@@H](CCC(N)=O)C(=O)N[C@@H](CCCNC(=N)N)C(=O)N[C@@H](CCCNC(=N)N)C(=O)N[C@@H](CCCNC(=N)N)C(N)=O` [FAM-NLSTAT, reference compound] (5FAM-PKKKRKVYGRKKRRQRRR-NH2), the “Cellular uptake (FAM fluorescence within cells)” value with SK-MEL-28 cells was “FAM fluorescence was observed within the cells”.

Turning to `CC[C@H](C)[C@H](NC(=O)[C@H](CCC(=O)O)NC(=O)[C@H](CCCCN)NC(=O)[C@H](CCCNC(=N)N)NC(=O)[C@H](CC(C)C)NC(=O)[C@H](C)NC(=O)[C@H](Cc1ccc(O)cc1)NC(=O)[C@H](CC(N)=O)NC(=O)[C@H](CCCNC(=N)N)NC(=O)[C@H](CCC(=O)O)NC(=O)[C@H](CCC(=O)O)NC(=O)[C@H](CC(C)C)NC(=O)[C@H](CCC(N)=O)NC(=O)[C@H](CCC(=O)O)NC(=O)[C@@H](NC(=O)[C@H](CCC(=O)O)NC(=O)[C@H](CCC(=O)O)NC(=O)[C@H](CCC(=O)O)NC(=O)[C@H](CC(C)C)NC(=O)[C@@H](NC(=O)[C@H](CC(=O)O)NC(=O)[C@H](CCC(=O)O)NC(=O)[C@H](CCC(=O)O)NC(=O)[C@@H](NC(=O)[C@@H](NC(=O)[C@H](CC(C)C)NC(=O)[C@H](CCC(=O)O)NC(=O)[C@H](CCC(=O)O)NC(=O)[C@H](C)NC(=O)[C@H](CCC(=O)O)NC(C)=O)C(C)C)C(C)C)C(C)C)[C@@H](C)CC)C(=O)N[C@H]1CCCCNC(=O)C[C@@H](C(=O)N[C@@H](CCC(N)=O)C(N)=O)NC(=O)[C@H](CCC(N)=O)NC(=O)[C@H](CC(C)C)NC(=O)[C@H](CC(=O)O)NC1=O` [HW29, reference compound] (Ac-EAEELVVEEDVLEEEIEQLEERNYALRKEIKDLQDQ-NH2; lactam 31-35), the “cJun-TRE DNA IC50, fold improved (oxidised vs reduced)” value on cJun/TRE DNA is on record as 1. Besides, on cJun [1], the “Antagonist-cJun heterodimer Tm, reduced” value is 68 °C; the “Antagonist-cJun heterodimer Tm, oxidised” value was determined as 66 °C; the “Antagonist-cJun heterodimer Tm, Δox-red” value was -2 °C. Further, on cJun [2] (read-out: Previously determined affinity for cJun), the Kd is 0.087 ± 0.017 µM.

As to `CC[C@H](C)[C@H](NC(=O)[C@H](CCC(=O)O)NC(=O)[C@H](CCCCN)NC(=O)[C@H](CCCNC(=N)N)NC(=O)[C@H](CC(C)C)NC(=O)[C@H](C)NC(=O)[C@H](Cc1ccc(O)cc1)NC(=O)[C@H](CC(N)=O)NC(=O)[C@H](CCCNC(=N)N)NC(=O)[C@H](CCC(=O)O)NC(=O)[C@H](CCC(=O)O)NC(=O)[C@H](CC(C)C)NC(=O)[C@H](CCC(N)=O)NC(=O)[C@H](CCC(=O)O)NC(=O)[C@@H](NC(=O)[C@H](CCC(=O)O)NC(=O)[C@H](CCC(=O)O)NC(=O)[C@H](CCC(=O)O)NC(=O)[C@H](CC(C)C)NC(=O)[C@@H](NC(=O)[C@H](CC(=O)O)NC(=O)[C@H](CCC(=O)O)NC(=O)[C@H](CCC(=O)O)NC(=O)[C@@H](NC(=O)[C@@H](NC(=O)[C@H](CC(C)C)NC(=O)[C@H](CCC(=O)O)NC(=O)[C@H](CCC(=O)O)NC(=O)[C@H](CS)NC(=O)[C@H](CCC(=O)O)NC(C)=O)C(C)C)C(C)C)C(C)C)[C@@H](C)CC)C(=O)N[C@H]1CCCCNC(=O)C[C@@H](C(=O)N[C@@H](CCC(N)=O)C(N)=O)NC(=O)[C@H](CCC(N)=O)NC(=O)[C@H](CC(C)C)NC(=O)[C@H](CC(=O)O)NC1=O` [HW31] (Ac-ECEELVVEEDVLEEEIEQLEERNYALRKEIKDLQDQ-NH2; lactam 31-35), at cJun/TRE DNA (setting [5]), the IC50 was found to be 12.1 ± 0.3 µM. Besides, the “cJun-TRE DNA IC50, fold improved (oxidised vs reduced)” value on cJun/TRE DNA stood at 4. The IC50 at cJun/TRE DNA (setting [6]) came out at 48.3 ± 1.8 µM. For the same compound, at cJun [1], the “Antagonist-cJun heterodimer Tm, reduced” value is 66.6 °C and 67 °C; the “Antagonist-cJun heterodimer Tm, oxidised” value is 81.2 °C and 81 °C; the “Antagonist-cJun heterodimer Tm, Δox-red” value was 14.6 °C and 14 °C. Besides, at cJun [3], the “Increase in helicity of the HW31-cJun heterodimer complex in oxidized buffer relative to reduced” value is on record as “≈ 10%”. On cJun [4], the “Disulphide formation with cJun” value is reported as “covalent attachment via a disulphide”.

For the compound “Ac-LEQRAEELARENEELEKEAEELVVEEDVLEEEIEQLEERNYALRKEIEDLQKQLEKL-NH2 [HW1, reference compound]”, the IC50 on cJun/TRE DNA (setting [5]) stood at 11.8 ± 0.3 µM. Moreover, the “cJun-TRE DNA IC50, fold improved (oxidised vs reduced)” value on cJun/TRE DNA is reported as 1. For the same compound, the IC50 on cJun/TRE DNA (setting [6]) was 13.8 ± 0.3 µM. On cJun [1], the “Antagonist-cJun heterodimer Tm, reduced” value was 73 °C; the “Antagonist-cJun heterodimer Tm, oxidised” value is 70 °C; the “Antagonist-cJun heterodimer Tm, Δox-red” value was -3 °C. For the same compound, at cJun [2] (read-out: Affinity for cJun), the Kd was 0.00021 µM.
